# US20080081078A1, “Prevention of Cell Proliferation by Inhibiting Myosin Light Chain Kinase” (The Board of Trustees of the University of Illinois, priority 2006, published 2008)
# Where two headings read alike, the source gives them in different places.
# What was measured:
# MLC20 phosphorylation = MLC20 phosphorylation by urea gel/Western blotting in smooth muscle cells (SMC); assay type: cell-based, pig; details: 24 hrs, 10 μM Dex, 10 μM ActD, 100 μM Chx, 2 μM Cam, 100 μM Eto
# Procedure: NIH 3T3 fibroblasts were obtained from ATCC and were grown in Dulbecco's Modified Eagle Medium (DMEM) (Gibco BRL, Gaithersburg, Md.) supplemented with 10% FBS and 1% penicillin and streptomycin in a 37° C. incubator. 3T3 cells were treated with 500 nM actinomycin D in DMEM containing 0.5% FBS without antibiotics for the 0, 2, 4, 8, 16, or 24 hours. Cells were then washed with phosphate buffered saline (PBS). Floating cells were collected by centrifugation and combined with attached cells that were harvested by trypsinization. MLC20 phosphorylation was quantified be Western blotting with an anti-MLC20 antibody (FIG. 1). In short, the harvested cells were treated with ice cold 10% TCA, 10 mM DTT to precipitate the cellular proteins. The pellets were washed with acetone, dissolved in 9 M urea, 10 mM DTT, 20 mM Tris, pH 7.5 and separated using glycerol-urea polyacrylamide gel electrophoresis (PAGE). The proteins were transferred to nitrocellulose, the un-, mono-, and di-phosphorylated forms of MLC20 were identified using an affinity purified antibody to MLC20 and horseradish peroxidase-linked secondary antibody (Jackson ImmunoResearch, West Grove, Pa.). Protein bands were visualized with ECL reagent and the stoichiometry of phosphorylation (mol PO4/mol MLC20) was calculated as described (Obara et al., 1989, “Okadaic acid, a phosphatase inhibitor, produces a Ca2+ and calmodulin-independent contraction of lamb tracheal smooth muscle,” Pfluger's Archiv. 414: 134-138).
# The stoichiometry of MLC20 phosphorylation (FIG. 1B, inset) was quantified using the urea gel/Western blotting method described above in untreated (Un) pig pulmonary artery smooth muscle cells (SMC) and SMC treated with 10 μM dexamethasone (Dex), 10 μM actinomycin D (ActD), 100 μM cycloheximide (Chx), 2 μM camptothecin (Cam), and 100 μM etoposide (Eto) for 24 hrs (mean+/−SE, n=3).
# Next, in order to determine whether MLC-DP can trigger cell death, SMC were treated with ML-7 or KT5926, two inhibitors of MLCK (Nakanishi et al., 1990; Garcia, 1998; and Bain et al., 2003).
# SMC cells were either treated with 10 μM cytochalasin D (CytD) or grown on the non-ionic substrate polyHema to prevent attachment.
# [1] = tested on: MLL rat prostate cancer cells; experiment: Annexin V / PI flow cytometry apoptosis assay in MLL (MatLyLu) cells; assay type: cell-based
# Procedure: The Mm5MT mouse mammary adenocarcinoma cancer cell line was obtained from American Type Culture Collection (ATCC, Manassas, Va., USA) and was maintained in DMEM medium supplemented with 10% fetal bovine serum (FBS) and 100 U/ml penicillin, 100 μg/ml streptomycin. The MatLy-Lu (MLL) sub-line of the Dunning R-3327 prostate adenocarcinoma (graciously provided by B. Lokeshwar, University of Miami) (Lokeshwar et al., Int. J. Cancer 2002; 98:297-309) was maintained in RPMI1640 medium supplemented with 10% FBS, 250 nM dexamethasone, 100 U/ml penicillin and 100 μg/ml streptomycin.
# Mm5MT or MLL cells (200,000 cells per well) were seeded in 6-well dishes one day before drug treatment and cultured as described above. On the day of the experiment, media was changed to DMEM supplemented with 0.5% FBS and the cells were treated with drugs as defined by the specific experimental protocol. ML-7 (Biomol, Plymouth Meeting, Pa.) was incubated with cells for 16 h when used alone. When used in combination with etoposide, ML-7 was added to cells 2 h before adding the indicated concentration of etoposide (Calbiochem, La Jolla, Calif.) and the cells were incubated with ML-7 and etoposide for an additional 16 h. The cells were then treated with trypsin, washed twice with cold PBS and re-suspended in 100 μl of buffer containing 10 mM Hepes, pH 7.4, 140 mM NaCl and 2.5 mM CaCl2 (binding buffer). Then, 5 μl of FITC-conjugated annexin V (Pharmingen, San Diego, Calif.) and 10 μl of propidium iodide (PI) (50 μg/ml) were added and cells were incubated in the dark at room temperature for 15 min. Next, 400 μl of binding buffer was added per sample and the cells were analyzed cytofluorometrically using a Coulter Epics Elite ESP flow cytometer (Ex: 488 nm, Em: 585 nm). At least 10,000 cells were counted per analysis and cells that stained positive for annexin V and PI were judged to be apoptotic.
# Cells were grown in culture dishes in Dulbecco's Modified Eagle Medium (Gibco BRL, Gaithersburg, Md.) supplemented with 10% FBS and 1% penicillin and streptomycin. […] The floating and attached cells were combined and analyzed using conventional methods.
# To quantify apoptosis, cells were washed twice with cold PBS, resuspended in 100 μl of 10 mM Hepes, pH 7.4, 140 mM NaCl, 2.5 mM CaCl2 (Binding Buffer). […] After incubation, 400 μl of binding buffer was added per sample and cells were analyzed cytofluorimetrically using a Coulter Epics Elite ESP flow cytometer (excitation wavelength: 488 nm, emission wavelength: 585 nm). At least 10,000 cells were counted per analysis and cells that stained positive for Annexin V and PI were considered apoptotic.
# Cells were collected 16 h after adding etoposide and apoptosis was quantified by FACS analysis.
smiles,measurement,setting,value
COc1cc([C@@H]2c3cc4c(cc3[C@@H](O[C@@H]3O[C@@H]5CO[C@@H](C)O[C@H]5[C@H](O)[C@H]3O)[C@H]3COC(=O)[C@H]23)OCO4)cc(OC)c1O [etoposide],MLC20 phosphorylation,MLC20 phosphorylation,dephosphorylated
same,EC50,"[1]; MLL cells, no ML-7 (FIG. 15), read-out: concentration of etoposide required for inducing apoptosis in 50% of the cells",376 µM
same,EC50,"[1]; MLL cells, with 5 μM ML-7 pre-treatment (FIG. 15), read-out: concentration of etoposide required for inducing apoptosis in 50% of the cells",68 µM
same,EC50,"[1]; MatLyLu cells, etoposide alone (FIG. 7), read-out: half-maximal concentration for producing apoptosis",~410 µM
same,EC50,"[1]; MatLyLu cells, etoposide plus 5 μM ML-7 (FIG. 7), read-out: half-maximal concentration for producing apoptosis",~40 µM
